ChEMBL document CHEMBL1201861, “Genomics of Drug Sensitity in Cancer screening data, Wellcome Trust Sanger Institute”
Counter-ions that a name gives are not always drawn.

Legend:
SAS = experiment: cells; type: functional, cell-based, Homo sapiens; details: Homo sapiens, SAS
Description: SANGER: Inhibition of human SAS cell growth in a cell viability assay.

NCI-H441 = experiment: cells; type: functional, cell-based, Homo sapiens; details: Homo sapiens, NCI-H441
Description: SANGER: Inhibition of human NCI-H441 cell growth in a cell viability assay.

NCI-H2342 = experiment: cells; type: functional, cell-based, Homo sapiens; details: Homo sapiens, NCI-H2342
Description: SANGER: Inhibition of human NCI-H2342 cell growth in a cell viability assay.

DG-75 = experiment: cells; type: functional, cell-based, Homo sapiens; details: Homo sapiens, DG-75
Description: SANGER: Inhibition of human DG-75 cell growth in a cell viability assay.

BC1 cell line = experiment: SANGER: Inhibition of human BC-1 cell growth in a cell viability assay.; type: functional, cell-based; details: Homo sapiens, BC1
NCI-H2009 = experiment: cells; type: functional, cell-based, Homo sapiens; details: Homo sapiens, NCI-H2009
Description: SANGER: Inhibition of human NCI-H2009 cell growth in a cell viability assay.

NCI-H661 = experiment: cells; type: functional, cell-based, Homo sapiens; details: Homo sapiens, NCI-H661
Description: SANGER: Inhibition of human NCI-H661 cell growth in a cell viability assay.

SW948 = experiment: cells; type: functional, cell-based, Homo sapiens; details: Homo sapiens, SW948
Description: SANGER: Inhibition of human SW948 cell growth in a cell viability assay.

NCI-H596 = experiment: cells; type: functional, cell-based, Homo sapiens; details: Homo sapiens, NCI-H596
Description: SANGER: Inhibition of human NCI-H596 cell growth in a cell viability assay.

NCI-H1436 = experiment: cells; type: functional, cell-based, Homo sapiens; details: Homo sapiens, NCI-H1436
Description: SANGER: Inhibition of human NCI-H1436 cell growth in a cell viability assay.

HLE = experiment: cells; type: functional, cell-based, Homo sapiens; details: Homo sapiens, HLE
Description: SANGER: Inhibition of human HLE cell growth in a cell viability assay.

T84 = experiment: cells; type: functional, cell-based, Homo sapiens; details: Homo sapiens, T84
Description: SANGER: Inhibition of human T84 cell growth in a cell viability assay.

AU565 = experiment: cells; type: functional, cell-based, Homo sapiens; details: Homo sapiens, AU565
Description: SANGER: Inhibition of human AU565 cell growth in a cell viability assay.

CAMA-1 = experiment: cells; type: functional, cell-based, Homo sapiens; details: Homo sapiens, CAMA-1
Description: SANGER: Inhibition of human CAMA-1 cell growth in a cell viability assay.

NCI-H810 = experiment: cells; type: functional, cell-based, Homo sapiens; details: Homo sapiens, NCI-H810
Description: SANGER: Inhibition of human NCI-H810 cell growth in a cell viability assay.

NCI-H1573 = experiment: cells; type: functional, cell-based, Homo sapiens; details: Homo sapiens, NCI-H1573
Description: SANGER: Inhibition of human NCI-H1573 cell growth in a cell viability assay.

RO82-W-1 = experiment: cells; type: functional, cell-based, Homo sapiens; details: Homo sapiens, RO82-W-1
Description: SANGER: Inhibition of human RO82-W-1 cell growth in a cell viability assay.

JEG-3 = experiment: cells; type: functional, cell-based, Homo sapiens; details: Homo sapiens, JEG-3
Description: SANGER: Inhibition of human JEG-3 cell growth in a cell viability assay.

HT-1376 = experiment: cells; type: functional, cell-based, Homo sapiens; details: Homo sapiens, HT-1376
Description: SANGER: Inhibition of human HT-1376 cell growth in a cell viability assay.

BEN = experiment: cells; type: functional, cell-based, Homo sapiens; details: Homo sapiens, BEN
Description: SANGER: Inhibition of human BEN cell growth in a cell viability assay.

HT55 = experiment: cells; type: functional, cell-based, Homo sapiens; details: Homo sapiens, HT55
Description: SANGER: Inhibition of human HT55 cell growth in a cell viability assay.

Calu-3 = experiment: cells; type: functional, cell-based, Homo sapiens; details: Homo sapiens, Calu-3
Description: SANGER: Inhibition of human Calu-3 cell growth in a cell viability assay.

UMC-11 = experiment: cells; type: functional, cell-based, Homo sapiens; details: Homo sapiens, UMC-11
Description: SANGER: Inhibition of human UMC-11 cell growth in a cell viability assay.

HT-29 = experiment: cells; type: functional, cell-based, Homo sapiens; details: Homo sapiens, HT-29
Description: SANGER: Inhibition of human HT-29 cell growth in a cell viability assay.

SK-N-AS = experiment: cells; type: functional, cell-based, Homo sapiens; details: Homo sapiens, SK-N-AS
Description: SANGER: Inhibition of human SK-N-AS cell growth in a cell viability assay.

COR-L105 = experiment: cells; type: functional, cell-based, Homo sapiens; details: Homo sapiens, COR-L105
Description: SANGER: Inhibition of human COR-L105 cell growth in a cell viability assay.

KARPAS-422 = experiment: cells; type: functional, cell-based, Homo sapiens; details: Homo sapiens, KARPAS-422
Description: SANGER: Inhibition of human KARPAS-422 cell growth in a cell viability assay.

NCI-H1792 = experiment: cells; type: functional, cell-based, Homo sapiens; details: Homo sapiens, NCI-H1792
Description: SANGER: Inhibition of human NCI-H1792 cell growth in a cell viability assay.

P12-Ichikawa = experiment: cells; type: functional, cell-based, Homo sapiens; details: Homo sapiens, P12-Ichikawa
SK-LU-1 = experiment: cells; type: functional, cell-based, Homo sapiens; details: Homo sapiens, SK-LU-1
Description: SANGER: Inhibition of human SK-LU-1 cell growth in a cell viability assay.

LOUCY = experiment: cells; type: functional, cell-based, Homo sapiens; details: Homo sapiens, LOUCY
Description: SANGER: Inhibition of human LOUCY cell growth in a cell viability assay.

HSC-2 = experiment: cells; type: functional, cell-based, Homo sapiens; details: Homo sapiens, HSC-2
Description: SANGER: Inhibition of human HSC-2 cell growth in a cell viability assay.

BFTC-905 = experiment: cells; type: functional, cell-based, Homo sapiens; details: Homo sapiens, BFTC-905
Description: SANGER: Inhibition of human BFTC-905 cell growth in a cell viability assay.

RPMI-7951 = experiment: cells; type: functional, cell-based, Homo sapiens; details: Homo sapiens, RPMI-7951
Description: SANGER: Inhibition of human RPMI-7951 cell growth in a cell viability assay.

SW1088 = experiment: cells; type: functional, cell-based, Homo sapiens; details: Homo sapiens, SW1088
Description: SANGER: Inhibition of human SW1088 cell growth in a cell viability assay.

NCI-H2122 = experiment: cells; type: functional, cell-based, Homo sapiens; details: Homo sapiens, NCI-H2122
Description: SANGER: Inhibition of human NCI-H2122 cell growth in a cell viability assay.

UACC-62 = experiment: cells; type: functional, cell-based, Homo sapiens; details: Homo sapiens, UACC-62
Description: SANGER: Inhibition of human UACC-62 cell growth in a cell viability assay.

MFE-280 = experiment: cells; type: functional, cell-based, Homo sapiens; details: Homo sapiens, MFE-280
Description: SANGER: Inhibition of human MFE-280 cell growth in a cell viability assay.

AGS = experiment: cells; type: functional, cell-based, Homo sapiens; details: Homo sapiens, AGS
Description: SANGER: Inhibition of human AGS cell growth in a cell viability assay.

CAL-72 = experiment: cells; type: functional, cell-based, Homo sapiens; details: Homo sapiens, CAL-72
Description: SANGER: Inhibition of human CAL-72 cell growth in a cell viability assay.

HCT-15 = experiment: cells; type: functional, cell-based, Homo sapiens; details: Homo sapiens, HCT-15
Description: SANGER: Inhibition of human HCT-15 cell growth in a cell viability assay.

NCI-H1993 = experiment: cells; type: functional, cell-based, Homo sapiens; details: Homo sapiens, NCI-H1993
Description: SANGER: Inhibition of human NCI-H1993 cell growth in a cell viability assay.

RMG-I = experiment: cells; type: functional, cell-based, Homo sapiens; details: Homo sapiens, RMG-I
Description: SANGER: Inhibition of human RMG-I cell growth in a cell viability assay.

NCI-H1694 = experiment: cells; type: functional, cell-based, Homo sapiens; details: Homo sapiens, NCI-H1694
Description: SANGER: Inhibition of human NCI-H1694 cell growth in a cell viability assay.

SNU-16 = experiment: cells; type: functional, cell-based, Homo sapiens; details: Homo sapiens, SNU-16
Description: SANGER: Inhibition of human NCI-SNU-16 cell growth in a cell viability assay.

## COC1=CC(c2cc3ccccc3[nH]2)=N/C1=C\c1[nH]c(C)cc1C [OBATOCLAX MESYLATE]
SAS
  IC50: 273 nM
NCI-H441
  IC50: 191 nM
NCI-H2342
  IC50: 51.2 nM
DG-75
  IC50: 6890 nM
BC1 cell line
  IC50: 60.2 nM
NCI-H2009
  IC50: 347 nM
NCI-H661
  IC50: 1300 nM
SW948
  IC50: 7580 nM
NCI-H596
  IC50: 236 nM
NCI-H1436
  IC50: 1260 nM
HLE
  IC50: 169 nM
T84
  IC50: 212 nM
AU565
  IC50: 425 nM
CAMA-1
  IC50: 436 nM
NCI-H810
  IC50: 117 nM
NCI-H1573
  IC50: 3200 nM
RO82-W-1
  IC50: 2410 nM
JEG-3
  IC50: 1500 nM
HT-1376
  IC50: 127 nM
BEN
  IC50: 1070 nM
HT55
  IC50: 2790 nM
Calu-3
  IC50: 253 nM
UMC-11
  IC50: 1400 nM
HT-29
  IC50: 44.9 nM
SK-N-AS
  IC50: 1050 nM
COR-L105
  IC50: 322 nM
KARPAS-422
  IC50: 166 nM
NCI-H1792
  IC50: 377 nM
P12-Ichikawa
  IC50: 73.5 nM
SK-LU-1
  IC50: 134 nM
LOUCY
  IC50: < 62.5 nM
HSC-2
  IC50: 24.7 nM
BFTC-905
  IC50: 79.1 nM
RPMI-7951
  IC50: 510 nM
SW1088
  IC50: 2780 nM
NCI-H2122
  IC50: 93.8 nM
UACC-62
  IC50: 302 nM
MFE-280
  IC50: 963 nM
AGS
  IC50: 386 nM
CAL-72
  IC50: 534 nM
HCT-15
  IC50: 225 nM
NCI-H1993
  IC50: > 16000 nM
RMG-I
  IC50: 782 nM
NCI-H1694
  IC50: 919 nM
SNU-16
  IC50: 13100 nM

## Nc1ccn([C@@H]2O[C@H](CO)[C@@H](O)C2(F)F)c(=O)n1 [GEMCITABINE]
SAS
  IC50: 20.5 nM
NCI-H441
  IC50: 5.6 nM
NCI-H2342
  IC50: 7.63 nM
DG-75
  IC50: > 1020 nM
BC1 cell line
  IC50: 33.8 nM
NCI-H2009
  IC50: < 4 nM
NCI-H661
  IC50: 104 nM
SW948
  IC50: > 1020 nM
NCI-H596
  IC50: 225 nM
NCI-H1436
  IC50: > 1020 nM
HLE
  IC50: 3 nM
T84
  IC50: 16 nM
AU565
  IC50: 21.8 nM
CAMA-1
  IC50: 396 nM
NCI-H810
  IC50: 8.56 nM
NCI-H1573
  IC50: > 1020 nM
RO82-W-1
  IC50: > 1020 nM
JEG-3
  IC50: 277 nM
HT-1376
  IC50: 369 nM
BEN
  IC50: 238 nM
HT55
  IC50: > 1020 nM
Calu-3
  IC50: 17.3 nM
UMC-11
  IC50: > 1020 nM
HT-29
  IC50: < 4 nM
SK-N-AS
  IC50: > 1020 nM
COR-L105
  IC50: 29.4 nM
KARPAS-422
  IC50: 85.8 nM
NCI-H1792
  IC50: 259 nM
P12-Ichikawa
  IC50: 84.7 nM
SK-LU-1
  IC50: < 4 nM
LOUCY
  IC50: 20.7 nM
HSC-2
  IC50: 3.03 nM
BFTC-905
  IC50: < 4 nM
RPMI-7951
  IC50: < 4 nM
SW1088
  IC50: > 1020 nM
NCI-H2122
  IC50: < 4 nM
UACC-62
  IC50: 813 nM
MFE-280
  IC50: > 1020 nM
AGS
  IC50: < 4 nM
CAL-72
  IC50: > 1020 nM
HCT-15
  IC50: 82.2 nM
NCI-H1993
  IC50: > 1020 nM
RMG-I
  IC50: > 1020 nM
NCI-H1694
  IC50: 61.3 nM
SNU-16
  IC50: > 1020 nM
